Assay results from ChEMBL document CHEMBL3421558, “Structure activity relationship of substituted 1,5-naphthyridine analogs of oxabicyclooctane-linked novel bacterial topoisomerase inhibitors as broad-spectrum antibacterial agents (Part-4)” (Bioorg Med Chem Lett, 2015).
≈ marks a conversion by molar mass, not a printed value.

Experiments:
Assay type in all cases: functional
Staphylococcus aureus [1] = assay: Antimicrobial activity against Staphylococcus aureus Smith by micro broth dilution or agar based method; conditions: Staphylococcus aureus, Smith; read-out: MIC
Streptococcus pneumoniae = assay: Antimicrobial activity against Streptococcus pneumoniae IID553 by micro broth dilution or agar based method; conditions: Streptococcus pneumoniae, IID553; read-out: MIC
Enterococcus faecium = assay: Antimicrobial activity against VanA expressing vancomycin-resistant Enterococcus faecium by micro broth dilution or agar based method; conditions: Enterococcus faecium; read-out: MIC
Escherichia coli = assay: Antimicrobial activity against Escherichia coli ATCC 25922 by micro broth dilution or agar based method; conditions: Escherichia coli, ATCC 25922; read-out: MIC
Acinetobacter baumannii = assay: Antimicrobial activity against Acinetobacter baumannii IID876 by micro broth dilution or agar based method; conditions: Acinetobacter baumannii, IID876; read-out: MIC
Pseudomonas aeruginosa = assay: Antimicrobial activity against Pseudomonas aeruginosa PAO1 by micro broth dilution or agar based method; conditions: Pseudomonas aeruginosa, PAO1; read-out: MIC
Staphylococcus aureus [2] = assay: Antimicrobial activity against methicillin-resistant Staphylococcus aureus OIT971 by micro broth dilution or agar based method

COc1ccc2ncc(C(F)(F)F)c(CCC34CCC(NCc5ccc6c(n5)NC(=O)CO6)(CC3)CO4)c2n1
MIC (Staphylococcus aureus [1]): 0.03 µg/mL (≈ 0.0552 µM) | MIC (Streptococcus pneumoniae): 0.25 µg/mL (≈ 0.46 µM) | MIC (Enterococcus faecium): 1 µg/mL (≈ 1.84 µM) | MIC (Escherichia coli): 4 µg/mL (≈ 7.36 µM) | MIC (Acinetobacter baumannii): 2 µg/mL (≈ 3.68 µM) | MIC (Pseudomonas aeruginosa): 32 µg/mL (≈ 58.9 µM)

COc1ccc2ncc(C(F)F)c(CCC34CCC(NCc5ccc6c(n5)NC(=O)CO6)(CC3)CO4)c2n1
MIC (Staphylococcus aureus [1]): 0.03 µg/mL (≈ 0.0571 µM) | MIC (Streptococcus pneumoniae): 0.12 µg/mL (≈ 0.228 µM) | MIC (Enterococcus faecium): 1 µg/mL (≈ 1.9 µM) | MIC (Escherichia coli): 4 µg/mL (≈ 7.61 µM) | MIC (Acinetobacter baumannii): 2 µg/mL (≈ 3.81 µM) | MIC (Pseudomonas aeruginosa): 16 µg/mL (≈ 30.4 µM)

COc1ccc2ncc(C)c(CCC34CCC(NCc5ccc6c(n5)NC(=O)CO6)(CC3)CO4)c2n1
MIC (Staphylococcus aureus [1]): 0.06 µg/mL (≈ 0.123 µM) | MIC (Streptococcus pneumoniae): 0.06 µg/mL (≈ 0.123 µM) | MIC (Enterococcus faecium): 1 µg/mL (≈ 2.04 µM) | MIC (Escherichia coli): 4 µg/mL (≈ 8.17 µM) | MIC (Acinetobacter baumannii): 2 µg/mL (≈ 4.09 µM) | MIC (Pseudomonas aeruginosa): 16 µg/mL (≈ 32.7 µM)

COc1ccc2ncc(CO)c(CCC34CCC(NCc5ccc6c(n5)NC(=O)CO6)(CC3)CO4)c2n1
MIC (Staphylococcus aureus [1]): 0.5 µg/mL (≈ 0.989 µM) | MIC (Streptococcus pneumoniae): 0.5 µg/mL (≈ 0.989 µM) | MIC (Enterococcus faecium): 4 µg/mL (≈ 7.91 µM) | MIC (Escherichia coli): 16 µg/mL (≈ 31.6 µM) | MIC (Acinetobacter baumannii): 8 µg/mL (≈ 15.8 µM) | MIC (Pseudomonas aeruginosa): 32 µg/mL (≈ 63.3 µM)

COc1ccc2ncc(C(N)=O)c(CCC34CCC(NCc5ccc6c(n5)NC(=O)CO6)(CC3)CO4)c2n1
MIC (Staphylococcus aureus [1]): 4 µg/mL (≈ 7.71 µM) | MIC (Streptococcus pneumoniae): 2 µg/mL (≈ 3.86 µM) | MIC (Enterococcus faecium): 16 µg/mL (≈ 30.9 µM) | MIC (Escherichia coli): 32 µg/mL (≈ 61.7 µM) | MIC (Acinetobacter baumannii): 32 µg/mL (≈ 61.7 µM) | MIC (Pseudomonas aeruginosa): 32 µg/mL (≈ 61.7 µM)

COc1ccc2ncc(S(C)(=O)=O)c(CCC34CCC(NCc5ccc6c(n5)NC(=O)CO6)(CC3)CO4)c2n1
MIC (Staphylococcus aureus [1]): 0.25 µg/mL (≈ 0.452 µM) | MIC (Streptococcus pneumoniae): 0.5 µg/mL (≈ 0.903 µM) | MIC (Enterococcus faecium): 4 µg/mL (≈ 7.22 µM) | MIC (Escherichia coli): 16 µg/mL (≈ 28.9 µM) | MIC (Acinetobacter baumannii): 8 µg/mL (≈ 14.4 µM) | MIC (Pseudomonas aeruginosa): 32 µg/mL (≈ 57.8 µM)

O=C1COc2ccc(CNC34CCC(CCc5c(F)cnc6cc(C(F)(F)F)cnc56)(CC3)OC4)nc2N1
MIC (Staphylococcus aureus [1]): 16 µg/mL (≈ 30.1 µM) | MIC (Staphylococcus aureus [2]): 16 µg/mL (≈ 30.1 µM) | MIC (Streptococcus pneumoniae): 16 µg/mL (≈ 30.1 µM) | MIC (Enterococcus faecium): 16 µg/mL (≈ 30.1 µM) | MIC (Escherichia coli): 16 µg/mL (≈ 30.1 µM) | MIC (Acinetobacter baumannii): 16 µg/mL (≈ 30.1 µM) | MIC (Pseudomonas aeruginosa): 16 µg/mL (≈ 30.1 µM)

O=C1COc2ccc(CNC34CCC(CCc5c(F)cnc6cc(Cl)cnc56)(CC3)OC4)nc2N1
MIC (Staphylococcus aureus [1]): 8 µg/mL (≈ 16.1 µM) | MIC (Staphylococcus aureus [2]): 8 µg/mL (≈ 16.1 µM) | MIC (Streptococcus pneumoniae): 32 µg/mL (≈ 64.3 µM) | MIC (Enterococcus faecium): 32 µg/mL (≈ 64.3 µM) | MIC (Escherichia coli): 32 µg/mL (≈ 64.3 µM) | MIC (Acinetobacter baumannii): 32 µg/mL (≈ 64.3 µM) | MIC (Pseudomonas aeruginosa): 32 µg/mL (≈ 64.3 µM)

N#Cc1ccc2ncc(C#N)c(CCC34CCC(NCc5ccc6c(n5)NC(=O)CO6)(CC3)CO4)c2n1
MIC (Staphylococcus aureus [1]): 0.25 µg/mL (≈ 0.504 µM) | MIC (Staphylococcus aureus [2]): 0.125 µg/mL (≈ 0.252 µM) | MIC (Streptococcus pneumoniae): 1 µg/mL (≈ 2.02 µM) | MIC (Enterococcus faecium): 4 µg/mL (≈ 8.07 µM) | MIC (Escherichia coli): 8 µg/mL (≈ 16.1 µM) | MIC (Acinetobacter baumannii): 2 µg/mL (≈ 4.04 µM) | MIC (Pseudomonas aeruginosa): 16 µg/mL (≈ 32.3 µM)

COc1nc2c(CCC34CCC(NCc5ccc6c(n5)NC(=O)CO6)(CC3)CO4)ccnc2cc1Cl
MIC (Staphylococcus aureus [1]): 0.5 µg/mL (≈ 0.98 µM) | MIC (Staphylococcus aureus [2]): 0.25 µg/mL (≈ 0.49 µM) | MIC (Streptococcus pneumoniae): 8 µg/mL (≈ 15.7 µM) | MIC (Enterococcus faecium): 16 µg/mL (≈ 31.4 µM) | MIC (Escherichia coli): 32 µg/mL (≈ 62.7 µM) | MIC (Acinetobacter baumannii): 32 µg/mL (≈ 62.7 µM) | MIC (Pseudomonas aeruginosa): 32 µg/mL (≈ 62.7 µM)

COc1cc2nccc(CCC34CCC(NCc5ccc6c(n5)NC(=O)CO6)(CC3)CO4)c2nc1OC
MIC (Staphylococcus aureus [1]): 2 µg/mL (≈ 3.96 µM) | MIC (Staphylococcus aureus [2]): 1 µg/mL (≈ 1.98 µM) | MIC (Streptococcus pneumoniae): 8 µg/mL (≈ 15.8 µM) | MIC (Enterococcus faecium): 8 µg/mL (≈ 15.8 µM) | MIC (Escherichia coli): 8 µg/mL (≈ 15.8 µM) | MIC (Acinetobacter baumannii): 8 µg/mL (≈ 15.8 µM) | MIC (Pseudomonas aeruginosa): 8 µg/mL (≈ 15.8 µM)

COc1nc2c(CCC34CCC(NCc5ccc6c(n5)NC(=O)CO6)(CC3)CO4)ccnc2cc1F
MIC (Staphylococcus aureus [1]): 0.125 µg/mL (≈ 0.253 µM) | MIC (Staphylococcus aureus [2]): 0.063 µg/mL (≈ 0.128 µM) | MIC (Streptococcus pneumoniae): 2 µg/mL (≈ 4.05 µM) | MIC (Enterococcus faecium): 4 µg/mL (≈ 8.1 µM) | MIC (Escherichia coli): 4 µg/mL (≈ 8.1 µM) | MIC (Acinetobacter baumannii): 2 µg/mL (≈ 4.05 µM) | MIC (Pseudomonas aeruginosa): 16 µg/mL (≈ 32.4 µM)

COc1nc2c(CCC34CCC(NCc5ccc6c(n5)NC(=O)CO6)(CC3)CO4)ccnc2cc1C#N
MIC (Staphylococcus aureus [1]): 16 µg/mL (≈ 32 µM) | MIC (Staphylococcus aureus [2]): 2 µg/mL (≈ 4 µM) | MIC (Streptococcus pneumoniae): 64 µg/mL (≈ 128 µM) | MIC (Enterococcus faecium): 64 µg/mL (≈ 128 µM) | MIC (Escherichia coli): 64 µg/mL (≈ 128 µM) | MIC (Acinetobacter baumannii): 64 µg/mL (≈ 128 µM) | MIC (Pseudomonas aeruginosa): 64 µg/mL (≈ 128 µM)

COc1cc(C)c2nccc(CCC34CCC(NCc5ccc6c(n5)NC(=O)CO6)(CC3)CO4)c2n1
MIC (Staphylococcus aureus [1]): 0.125 µg/mL (≈ 0.255 µM) | MIC (Staphylococcus aureus [2]): 0.063 µg/mL (≈ 0.129 µM) | MIC (Streptococcus pneumoniae): 1 µg/mL (≈ 2.04 µM) | MIC (Enterococcus faecium): 8 µg/mL (≈ 16.3 µM) | MIC (Escherichia coli): 8 µg/mL (≈ 16.3 µM) | MIC (Acinetobacter baumannii): 8 µg/mL (≈ 16.3 µM) | MIC (Pseudomonas aeruginosa): 32 µg/mL (≈ 65.4 µM)
